In patent US20080293048A1, “METHODS AND KITS BASED ON UGT1A7 PROMOTER POLYMORPHISM” (priority 2004, published 2008):

Assays:
[1] = background statement; cited from earlier work
[2] = biological target: T1, UGT1A7 (Homo sapiens, UniProt Q9HAW7); settings: stated as known; cited from earlier work
T1 construct: expressed in transfected cells; host or cells: HEK293
T1 sequence (Q9HAW7 26-530): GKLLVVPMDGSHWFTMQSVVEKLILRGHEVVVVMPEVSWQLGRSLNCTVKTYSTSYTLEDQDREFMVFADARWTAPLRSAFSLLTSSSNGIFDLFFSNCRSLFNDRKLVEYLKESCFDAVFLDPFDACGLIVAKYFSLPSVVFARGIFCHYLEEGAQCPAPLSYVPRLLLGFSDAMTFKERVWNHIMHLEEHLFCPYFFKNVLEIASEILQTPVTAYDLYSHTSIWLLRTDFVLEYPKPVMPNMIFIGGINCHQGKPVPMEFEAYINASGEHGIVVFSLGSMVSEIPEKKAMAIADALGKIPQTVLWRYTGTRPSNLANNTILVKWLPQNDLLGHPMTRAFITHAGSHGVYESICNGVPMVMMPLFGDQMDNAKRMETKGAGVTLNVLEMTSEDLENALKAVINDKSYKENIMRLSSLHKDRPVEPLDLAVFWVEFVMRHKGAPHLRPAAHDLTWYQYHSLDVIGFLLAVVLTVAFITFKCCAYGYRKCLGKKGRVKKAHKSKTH

[3] = system: patients with metastatic colorectal cancer; settings: human, in vivo
Experimental: The aim of this study was to assess adverse events, dose reductions and clinical outcome. In both treatment arms 80 mg/m^2 of CPT-11 were administered intravenously over 30 minutes on day 1, 8, 15, 22, 29 and 36 and the cycle repeated after day 50. In arm A of the FIRE study FA (500 mg/m^2, 120 min. infusion) and 5-FU (2000 mg/m^2, 24 h infusion) were co-administered on days 1, 8, 15, 22, 29, 36, and in arm B oxaliplatin (85 mg/m^2, 120 min infusion) were co-administered on day 1, 15 and 29. At the beginning of each treatment cycle adverse events and clinical symptoms were documented. Patients with known Gilbert's disease were excluded from this study. The following adverse events were analyzed: diarrhea within 24 h and later than 24 after administration of CPT-11, loss of body weight more than 5%, anemia, thrombocytopenia, and leukopenia. The intensity of adverse events was classified according to the WHO-Adverse Reaction Terminology with scores from “0”—“no adverse events” to 4—“life-threatening adverse events”. If the CPT-11 dose had to be reduced to less than 80%, dose reduction was documented at each cycle. Genomic DNA from full blood of all patients was isolated as described before and genotyped after written informed consent was obtained. The study was approved by the local ethics committees.
All genotyping studies were performed in a blinded fashion without prior knowledge of the clinical data of the analyzed patient. Approximately 10 ng of genomic DNA were used as a template in Taqman 5′-nuclease assays. Primers and probes specific for each SNP were designed with Primer Express Software (Applied Biosystems) and labelled with either 6-FAM or VIC as reporter dyes and MGB-NFQ (Applied Biosystems) as a quencher as described in Lankisch et al., Mol. Pharmacol, 2005, 67(5); 1732-1739. The Taqman assays were performed using 600 nM primer concentrations and 200 nM probe concentrations (Applied Biosystems) and qPCR Mastermix Plus (Eurogentec, Seraing, Belgium). The run consisted of a hot start at 95° C. for 10 minutes and 35 cycles of 94° C. for 15 sec. and 61° C. for 1 min. All assays were performed in 25 μl reactions in 96-well trays using an ABI 7000 instrument (Applied Biosystems). UGT1A1*28 was determined by Oncoscreen, Jena, Germany.
Patients were classified according to the number of SNPs determined at the UGT1A1*28, UGT1A7 −57 T/G and UGT1A7 N129K/R131K gene loci. In the absence of allelic variants patients were classified as “low risk”, whereas high risk patients were defined if at least one allele of the allelic variant of each analyzed gene locus was present. If only one or two allelic variants were detected at the UGT1A1 or UGT1A7 gene locus, patients were classified as “intermediate risk”. […] Frequency and intensity of the adverse events were compared between the risk groups defined above by Cochran-Mantel-Haenszel statistics using modified ridit scores. The risk groups were also compared by multivariant analysis (non-parametric Weil-Lachin procedure) for differences in intensity of 5 adverse events simultaneously. […] This test leads to values between 0 and 1 with 0.5 characterizing equal chances, which would indicate no difference in the comparison of these patients. The analysis of incidence and intensity of adverse events was based on the documented 297 treatment cycles involving all 105 patients. The Chi-Square test was used for statistical analysis of CPT-11 dose reductions. P-values were not adjusted for multiple testing. All statistical analyses were calculated by an independent statistician who was not involved in patient treatment or genotyping (Estimate GmbH, Augsburg, Germany).

Row | SMILES | activity higher than irinotecan [1] | specific activity of UGT1A7 with SN-38 compared with UGT1A1 [2] | Leukopenia WHO Grade 1, % [3] [%] | Leukopenia WHO Grade 1, n treatment cycles [3] | Thrombocytopenia WHO Grade 2, % [3] [%] | Thrombocytopenia WHO Grade 2, n treatment cycles [3] | Thrombocytopenia WHO Grade 3, % [3] [%] | Thrombocytopenia WHO Grade 3, n treatment cycles [3] | diarrhea <24 h WHO Grade 3, % of treatment cycles [3] | diarrhea <24 h WHO Grade 3, N treatment cycles [3] | leukopenia WHO Grade 4, % of treatment cycles [3] [%] | leukopenia WHO Grade 4, N treatment cycles [3] | thrombocytopenia WHO Grade 2, % of treatment cycles [3] [%] | thrombocytopenia WHO Grade 2, N treatment cycles [3] | thrombocytopenia WHO Grade 3, % of treatment cycles [3] | thrombocytopenia WHO Grade 3, N treatment cycles [3] | overall incidence of adverse events, Mann Whitney test ([3]; 50 days) | Leukopenia WHO Grade 4, % ([3]; 50 days (one treatment cycle)) [%] | Leukopenia WHO Grade 4, n treatment cycles ([3]; 50 days (one treatment cycle))
1 | CCc1c2c(nc3ccc(O)cc13)-c1cc3c(c(=O)n1C2)COC(=O)[C@]3(O)CC [SN-38, 7-ethyl-10-hydroxycamptothecin] | 100-1000 fold | five-hold higher |  |  |  |  |  |  |  |  |  |  |  |  |  |  |  |  | 
2 | CCc1c2c(nc3ccc(OC(=O)N4CCC(N5CCCCC5)CC4)cc13)-c1cc3c(c(=O)n1C2)COC(=O)[C@]3(O)CC [irinotecan] |  |  | 21 | 10 | 3 | 5 | 1 | 1 | 1 (1%) | 1 (1%) | 1 | 2 | 3 | 5 | 1 (1%) | 1 (1%) | 0.5511 | 1 | 2
